Data as given in patent US9650340B2, “5-fluoro-N-(pyridin-2-yl)pyridin-2-amine derivatives containing a sulfoximine group” (BAYER PHARMA AKTIENGESELLSCHAFT, priority 2012, dated 2017).

What was measured:
[1] = system: NCI-H460, human non-small cell lung carcinoma cells; experiment: Proliferation assay, NCI-H460 (crystal violet); assay type: cell-based; details: Homo sapiens, NCI-H460, 96 h, NCI-H460, 4 days; read-out: Inhibition of NCI-H460 cell proliferation IC50
Description: (§1) Cultivated tumour cells (HeLa, human cervical tumour cells, ATCC CCL-2; NCI-H460, human non-small cell lung carcinoma cells, ATCC HTB-177; A2780, human ovarian carcinoma cells, ECACC #93112519; DU 145, hormone-independent human prostate carcinoma cells, ATCC HTB-81; HeLa-MaTu-ADR, multidrug-resistant human cervical carcinoma cells, EPO-GmbH Berlin; Caco-2, human colorectal carcinoma cells, ATCC HTB-37; B16F10, mouse melanoma cells, ATCC CRL-6475) were plated at a density of 5,000 cells/well (DU145, HeLa-MaTu-ADR), 3,000 cells/well (NCI-H460, HeLa), 2,500 cells/well (A2780), 1,500 cells/well (Caco-2), or 1,000 cells/well (B16F10) in a 96-well multititer plate in 200 μL of their respective growth medium supplemented 10% fetal calf serum. After 24 hours, the cells of one plate (zero-point plate) were stained with crystal violet (see below), while the medium of the other plates was replaced by fresh culture medium (200 μl), to which the test substances were added in various concentrations (0 μM, as well as in the range of 0.001-10 μM; the final concentration of the solvent dimethyl sulfoxide was 0.5%). The cells were incubated for 4 days in the presence of test substances. Cell proliferation was determined by staining the cells with crystal violet: the cells were fixed by adding 20 μl/measuring point of an 11% glutaric aldehyde solution for 15 minutes at room temperature. After three washing cycles of the fixed cells with water, the plates were dried at room temperature. The cells were stained by adding 100 μl/measuring point of a 0.1% crystal violet solution (pH 3.0). After three washing cycles of the stained cells with water, the plates were dried at room temperature. The dye was dissolved by adding 100 μl/measuring point of a 10% acetic acid solution. The extinction was determined by photometry at a wavelength of 595 nm. The change of cell number, in percent, was calculated by normalization of the measured values to the extinction values of the zero-point plate (=0%) and the extinction of the untreated (0 μm) cells (=100%). The IC50 values (inhibitory concentration at 50% of maximal effect) were determined by means of a 4 parameter fit. Non-adherent MOLM-13 human acute myeloid leukemia cells (DSMZ ACC 554) were seeded at a density of 5,000 cells/well in a 96-well multititer plate in 100 μL of growth medium supplemented 10% fetal calf serum. After 24 hours, cell viability of one plate (zero-point plate) was determined with the Cell Titre-Glo Luminescent Cell Viability Assay (Promega), while 50 μL of test compound containing medium was added to the wells of the other plates (final concentrations in the range of 0.001-10 μM and DMSO controls; the final concentration of the solvent dimethyl sulfoxide was 0.5%). Cell viability was assessed after 72-hour exposure with the Cell Titre-Glo Luminescent Cell Viability Assay (Promega).

[2] = system: HeLa, human cervical tumour cells; experiment: Proliferation assay, HeLa (crystal violet); assay type: cell-based; details: Homo sapiens, 96 h, 4 days, read-out: Inhibition of HeLa cell proliferation IC50
Description: as §1

[3] = molecular target: T1, CDK9/CycT1 (Homo sapiens, UniProt P50750); experiment: CDK9/CycT1 high ATP kinase assay (TR-FRET, 2 mM ATP); assay type: biochemical; details: Method 1b
T1 construct: Recombinant full-length His-tagged human CDK9 and CycT1; His; purchased Invitrogen PV4131; host or cells: insect cells
T1 sequence (P50750 whole entry): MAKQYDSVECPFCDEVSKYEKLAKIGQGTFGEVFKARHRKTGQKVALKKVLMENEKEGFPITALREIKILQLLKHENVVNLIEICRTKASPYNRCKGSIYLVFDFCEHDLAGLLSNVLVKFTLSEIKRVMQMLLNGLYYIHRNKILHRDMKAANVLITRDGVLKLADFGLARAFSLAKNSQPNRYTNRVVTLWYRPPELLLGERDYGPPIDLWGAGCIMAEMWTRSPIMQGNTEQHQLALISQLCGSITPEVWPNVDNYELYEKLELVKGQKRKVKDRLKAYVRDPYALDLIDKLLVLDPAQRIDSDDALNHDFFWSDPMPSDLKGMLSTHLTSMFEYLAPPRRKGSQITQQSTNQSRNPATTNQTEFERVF
T1 sequence (O60563 whole entry partner): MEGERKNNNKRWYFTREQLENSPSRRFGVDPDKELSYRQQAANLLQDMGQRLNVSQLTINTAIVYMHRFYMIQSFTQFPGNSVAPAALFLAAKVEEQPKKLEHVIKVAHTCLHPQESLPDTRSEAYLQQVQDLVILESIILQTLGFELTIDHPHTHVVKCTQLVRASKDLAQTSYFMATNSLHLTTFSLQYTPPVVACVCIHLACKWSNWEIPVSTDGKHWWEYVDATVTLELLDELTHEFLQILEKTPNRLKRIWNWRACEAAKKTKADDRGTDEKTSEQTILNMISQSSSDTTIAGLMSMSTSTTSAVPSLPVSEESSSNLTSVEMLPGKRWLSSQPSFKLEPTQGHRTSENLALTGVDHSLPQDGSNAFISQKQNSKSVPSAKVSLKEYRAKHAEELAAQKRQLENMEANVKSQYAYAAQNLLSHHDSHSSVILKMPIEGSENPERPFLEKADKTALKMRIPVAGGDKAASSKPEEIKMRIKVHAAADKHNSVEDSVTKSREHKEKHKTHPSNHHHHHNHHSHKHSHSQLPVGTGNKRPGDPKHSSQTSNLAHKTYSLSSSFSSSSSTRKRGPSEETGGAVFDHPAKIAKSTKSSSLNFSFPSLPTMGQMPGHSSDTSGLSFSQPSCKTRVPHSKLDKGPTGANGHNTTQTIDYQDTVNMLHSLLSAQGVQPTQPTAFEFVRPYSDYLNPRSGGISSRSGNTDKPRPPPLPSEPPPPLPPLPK
Description: 1b. CDK9/CyeT1 High ATP Kinase Assay
CDK9/CycT1-inhibitory activity of compounds of the present invention at a high ATP concentration after preincubation of enzyme and test compounds was quantified employing the CDK9/CycT1 TR-FRET assay as described in the following paragraphs.
Recombinant full-length His-tagged human CDK9 and CycT1, expressed in insect cells and purified by Ni-NTA affinity chromatography, were purchase from Invitrogen (Cat. No PV4131). As substrate for the kinase reaction biotinylated peptide biotin-Ttds-[…] (C-terminus in amid form) was used which can be purchased e.g. form the company JERINI peptide technologies (Berlin, Germany). For the assay 50 nl of a 100 fold concentrated solution of the test compound in DMSO was pipetted into a black low volume 384 well microtiter plate (Greiner Bio-One, Frickenhausen, Germany), 2 μl of a solution of CDK9/CycT1 in aqueous assay buffer [50 mM Tris/HCl pH 8.0, 10 mM MgCl2, 1.0 mM dithiothreitol, 0.1 mM sodium ortho-vanadate, 0.01% (v/v) Nonidet-P40 (Sigma)] were added and the mixture was incubated for 15 min at 22° C. to allow pre-binding of the test compounds to the enzyme before the start of the kinase reaction. Then the kinase reaction was started by the addition of 3 μl of a solution of adenosine-tri-phosphate (ATP, 3.3 mM=>final conc. in the 5 μl assay volume is 2 mM) and substrate (1.67 μM=>final conc. in the 5 μl assay volume is 1 μM) in assay buffer and the resulting mixture was incubated for a reaction time of 25 min at 22° C.
The resulting mixture was incubated 1 h at 22° C. to allow the formation of complex between the phosphorylated biotinylated peptide and the detection reagents. Subsequently the amount of phosphorylated substrate was evaluated by measurement of the resonance energy transfer from the Eu-chelate to the streptavidine-XL. Therefore, the fluorescence emissions at 620 nm and 665 nm after excitation at 350 nm was measured in a HTRF reader, e.g. a Rubystar (BMG Labtechnologies, Offenburg, Germany) or a Viewlux (Perkin-Elmer). The ratio of the emissions at 665 nm and at 622 nm was taken as the measure for the amount of phosphorylated substrate.

[4] = system: HeLa-MaTu-ADR, multidrug-resistant human cervical carcinoma cells; experiment: Proliferation assay, HeLa-MaTu-ADR (crystal violet); assay type: cell-based; details: Homo sapiens, 96 h, 4 days, read-out: Inhibition of HeLa-MaTu-ADR cell proliferation IC50
Description: as §1

[5] = system: B16F10, mouse melanoma cells; experiment: Proliferation assay, B16F10 (crystal violet); assay type: cell-based; details: Mus musculus, B16-F10, 96 h, B16F10, 4 days; read-out: Inhibition of B16F10 cell proliferation IC50
Description: as §1

[6] = system: DU 145, hormone-independent human prostate carcinoma cells; experiment: Proliferation assay, DU145 (crystal violet); assay type: cell-based; details: Homo sapiens, DU-145, 96 h, DU145, 4 days; read-out: Inhibition of DU145 cell proliferation IC50
Description: as §1

[7] = system: Caco-2, human colorectal carcinoma cells; experiment: Proliferation assay, Caco-2 (crystal violet); assay type: cell-based; details: Homo sapiens, Caco-2, 96 h, Caco-2, 4 days; read-out: Inhibition of Caco-2 cell proliferation IC50
Description: as §1

| Compound | IC50 [1] [nM] | IC50 [2] [nM] | IC50 [3] [nM] | IC50 [4] [nM] | IC50 [5] [nM] | IC50 [6] [nM] | IC50 [7] [nM] |
| --- | --- | --- | --- | --- | --- | --- | --- |
| COc1cc(F)ccc1-c1cc(Nc2cc(CS(=N)(=O)CCO)ccn2)ncc1F (racemic) [Example 8, (rac)-2-{S-[(2-{[5-Fluoro-4-(4-fluoro-2-methoxyphenyl)pyridin-2-yl]amino}pyridin-4-yl)methyl]sulfonimidoyl}ethanol] | 290 | 140 | 14 | 200 | 186 | 110 | 160 |
| CCOC(=O)N=S(C)(=O)Cc1ccnc(Nc2cc(-c3ccc(F)cc3OC)c(F)cn2)c1 (racemic) [Example 11, (rac)-Ethyl{[(2-{[5-fluoro-4-(4-fluoro-2-methoxyphenyl)pyridin-2-yl]amino}pyridin-4-yl)methyl](methyl)oxido-λ^6-sulfanylidene}carbamate] | 110 | 72 | 1 | 100 | 180 | 110 | 110 |
| CCNC(=O)N=S(C)(=O)Cc1ccnc(Nc2cc(-c3ccc(F)cc3OC)c(F)cn2)c1 (racemic) [Example 12, (rac)-1-Ethyl-3-{[(2-{[5-fluoro-4-(4-fluoro-2-methoxyphenyl)pyridin-2-yl]amino}pyridin-4-yl)methyl](methyl)oxido-λ^6-sulfanylidene}urea] | 100 | 34 | 2 | 100 | 130 | 77 | 98 |
| COc1cc(F)ccc1-c1cc(Nc2cc(CS(C)(=N)=O)cc(F)n2)ncc1F (racemic) [Example 17, (rac)-5-Fluoro-4-(4-fluoro-2-methoxyphenyl)-N-{6-fluoro-4-[(S-methylsulfonimidoyl)methyl]pyridin-2-yl}pyridin-2-amine] | 45 | 46 | 1.8 | 33 | 67 | 48 | 57 |
| COc1cc(F)ccc1-c1cc(Nc2cc(CS(C)(=N)=O)cc(C(F)(F)F)n2)ncc1F (racemic) [Example 21, (rac)-5-Fluoro-4-(4-fluoro-2-methoxyphenyl)-N-{4-[(S-methylsulfonimidoyl)methyl]-6-(trifluoromethyl)pyridin-2-yl}pyridin-2-amine] | 33 | 29 | 2 | 30 | 38 | 30 | 32 |
| CCOc1cc(F)ccc1-c1cc(Nc2cc(CS(C)(=O)=NC(=O)C(F)(F)F)cc(F)n2)ncc1F (racemic) [Example 27, (rac)-N-{[(2-{[4-(2-Ethoxy-4-fluoro-phenyl)-5-fluoropyridin-2-yl]amino}-6-fluoropyridin-4-yl)methyl]-(methyl)oxido-λ^6-sulfanylidene}-2,2,2-trifluoroacetamide] | 120 | 100 | 22 | 110 | 150 | 110 | 130 |

More lines, in order of falling IC50 [1], values ahead:

| IC50 [1] [nM] | IC50 [2] [nM] | IC50 [3] [nM] | IC50 [4] [nM] | IC50 [5] [nM] | IC50 [6] [nM] | IC50 [7] [nM] | Compound |
| --- | --- | --- | --- | --- | --- | --- | --- |
| 120 | 43 | 4 | 49 | 150 | 110 | 86 | CCOc1cc(F)ccc1-c1cc(Nc2cc(CS(C)(=N)=O)cc(F)n2)ncc1F (racemic) [Example 26, (rac)-4-(2-Ethoxy-4-fluorophenyl)-5-fluoro-N-{6-fluoro-4-[(S-methylsulfonimidoyl)methyl]pyridin-2-yl}pyridin-2-amine] |
| 120 | 100 | 5 | 74 | 120 | 82 | 52 | CCS(=N)(=O)Cc1ccnc(Nc2cc(-c3ccc(F)cc3OC)c(F)cn2)c1 (racemic) [Example 30, (rac)-N-{4-[(S-Ethylsulfonimidoyl)-methyl]pyridin-2-yl}-5-fluoro-4-(4-fluoro-2-methoxyphenyl)pyridin-2-amine] |
| 110 | 100 | 1 | 110 | 180 | 110 | 120 | COc1cc(F)ccc1-c1cc(Nc2cc(CS(C)(=O)=NC(C)=O)ccn2)ncc1F (racemic) [Example 13, (rac)-N-{[(2-{[5-Fluoro-4-(4-fluoro-2-methoxyphenyl)pyridin-2-yl]amino}pyridin-4-yl)methyl](methyl)oxido-λ^6-sulfanylidene}acetamide] |
| 110 | 61 | 4 | 35 | 68 | 41 | 43 | COc1cc(F)ccc1-c1cc(Nc2cc(CS(C)(=O)=NC(=O)C(F)(F)F)cc(F)n2)ncc1F (racemic) [Example 18, (rac)-2,2,2-Trifluoro-N-{[(2-fluoro-6-{[5-fluoro-4-(4-fluoro-2-methoxyphenyl)pyridin-2-yl]amino}pyridin-4-yl)methyl](methyl)oxido-λ^6-sulfanylidene}acetamide] |
| 32 | 40 | 1 | 31 | 45 | 31 | 39 | CCOC(=O)N=S(C)(=O)Cc1cc(Nc2cc(-c3ccc(F)cc3OC)c(F)cn2)nc(OC)c1 (racemic) [Example 15, (rac)-ethyl{[(2-{[5-fluoro-4-(4-fluoro-2-methoxyphenyl)pyridin-2-yl]amino}-6-methoxypyridin-4-yl)methyl](methyl)oxido-λ^6-sulfanylidene}carbamate] |
